# According to patent US5556751A, “Selective amplification system using Q-β replicase” (Amoco Corporation, priority 1994, dated 1996):
# How the values were obtained:
# [1] = target: replication of MDV-1 by Qβ replicase (Escherichia virus Qbeta, UniProt P14647); experiment: Inhibition of MDV-1 replication by dyes in linear-phase Qβ replicase reactions; format: biochemical, bacteriophage Qβ; details: for ability to inhibit the replication of MDV-1: linear-phase reactions, template RNA in excess over enzyme
# Method: A number of dyes, including ethidium bromide, ethidium bromide homodimer, propidium iodide, proflavine, quinacrine, Hoescht 33258 (bis-benzamidine),dimidium bromide and acridine orange, were tested for their ability to inhibit the replication of MDV-1 in linear-phase reactions, i.e., where the template RNA is present in excess over the enzyme and the amount of replicated RNA thus increases linearly with time. […] One of the strongest inhibitors, propidium iodide, was selected for further study.
# [2] = target: T1, replication of wild type MDV-1 RNA by Qβ replicase (Escherichia virus Qbeta, UniProt P14647); experiment: Effect of propidium iodide on replication of wild type MDV-1 RNA in a Qβ replicase preparation (32P-CTP incorporation time course); format: biochemical, bacteriophage Qβ
# T1 construct: made in house
# Method: Propidium iodide was tested for its effect on the replication of wild type RNA in a preparation of Qβ replicase. Propidium iodide in an amount of either 0, 1, or 3 μg/ml was added to a reaction buffer containing: 90 mM Tris HCl (pH7.5), 14 mM MgCl2, 0.4 mM each ATP, GTP, UTP, and CTP, and 10 μCi α- ^32 P-CTP. The Qβ replicase reaction was initiated in each sample by addition of 1.2 μg of Qβ replicase prepared according to the method of Eoyang and August, (1972), ibid. Aliquots of the reaction mixture were withdrawn every 5 minutes and spotted on DE81 filters (Schleicher & Schuell Inc., Keene, N.H.). The spotted filters were washed repeatedly with 0.5M NaPO4, (pH7.0) to remove unincorporated nucleotide. The filters were counted for Cerenkov radiation by standard procedures in a scintillation counter. Addition of propidium iodide delayed the point in time at which levels of incorporation resulting from the replication of wild type MDV-1 template became detectable.
Compound,ability to inhibit the replication of MDV-1 [1],further results
Nc1ccc2cc3ccc(N)cc3nc2c1 [proflavine],inhibited,–
CCN(CC)CCCC(C)Nc1c2ccc(Cl)cc2nc2ccc(OC)cc12 (stereo not shown) [quinacrine],inhibited,–
Cl.Cl.Nc1ccc2c(c1)c(-c1ccccc1)[n+](CCCNCCNCCC[n+]1c(-c3ccccc3)c3cc(N)ccc3c3ccc(N)cc31)c1cc(N)ccc21.[Cl-].[Cl-] [ethidium bromide homodimer],inhibited,–
C[n+]1c(-c2ccccc2)c2cc(N)ccc2c2ccc(N)cc21 [dimidium bromide],inhibited,–
CC[n+]1c(-c2ccccc2)c2cc(N)ccc2c2ccc(N)cc21 [ethidium bromide],inhibited,–
CN(C)c1ccc2cc3ccc(N(C)C)cc3nc2c1 [acridine orange],inhibited,–
"CN1CCN(c2ccc3[nH]c(-c4ccc5[nH]c(-c6ccc(O)cc6)nc5c4)nc3c2)CC1 [Hoescht 33258, Hoescht 33258 (bis-benzamidine)]","except Hoescht 33258, inhibited",–
CC[N+](C)(CC)CCC[n+]1c(-c2ccccc2)c2cc(N)ccc2c2ccc(N)cc21 [propidium iodide],inhibited,"inhibition at 3 µg/mL ([1]; dye concentration about 3μg/ml): 70%; inhibition at 1 µg/mL ([2]; propidium iodide 1 μg/ml, read-out: inhibition of the rate of replication in the geometric phase): 20 to 50%; delay of the appearance of replicated product ([2]; propidium iodide 1 μg/ml, wild type MDV-1 template): 2 to 5 min; reduction in the rate of replication ([2]; propidium iodide 3μg/ml): ~3 fold; delay of the appearance of product ([2]; propidium iodide 3μg/ml, wild type MDV-1 template): about 20 minutes"
